Values joined by “and” are separate entries in the source; they are usually repeats but may differ in a detail not shown here. Equal entries are not always repeated. Inconclusive results and toxic doses are left out.

In PubChem BioAssay AID330 (DTP/NCI, 2004) one finds T/C data, which are given here for 19 compounds.

This assay deals with P388 leukemia ip, CD2F1 mice, survival T/C. The assay is described as follows: NCI In Vivo Anticancer Drug Screen. Data for tumor model P388 Leukemia (intraperitoneal) in CD2F1 (CDF1) mice. Particulars: endpoint: median survival time, higher = longer survival. The essentials: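 Mice carrying the transplanted tumor received test compound or vehicle. Survival was recorded in each group, and the value is the treated-group measurement divided by that of the vehicle-treated control group.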

[1] abbreviates: dose: 50.0 mg/kg/injection, schedule: Q01DX009 (ip), vehicle: saline with Tween-80.
Setting [2] is: dose: 15.0 mg/kg/injection, schedule: Q01DX005 (ip), vehicle: saline.
Where [3] appears, read: dose: 25.0 mg/kg/injection, schedule: Q04DX003 (ip), vehicle: saline with Tween-80.
The mark [4] stands for this setting: dose: 50.0 mg/kg/injection, schedule: Q04DX003 (ip), vehicle: saline with Tween-80.
[5] abbreviates: dose: 100.0 mg/kg/injection, schedule: Q04DX003 (ip), vehicle: saline with Tween-80.
Where [6] appears, read: dose: 50.0 mg/kg/injection, schedule: Q01DX009 (ip), vehicle: saline.
Setting [7] is: dose: 100.0 mg/kg/injection, schedule: Q01DX009 (ip), vehicle: saline.

Regarding `Nc1cc2c(c[n+](CCCCCCCC[n+]3cc4c5ccccc5c(N)cc4c4ccccc43)c3ccccc23)c2ccccc12`, the T/C runs as follows: (dose: 1.56 mg/kg/injection, schedule: Q04DX003 (ip), vehicle: other) 161 % of control; (dose: 3.13 mg/kg/injection, schedule: Q04DX003 (ip), vehicle: other) 158 % of control and 161 % of control; (dose: 6.25 mg/kg/injection, schedule: Q04DX003 (ip), vehicle: other) 152 % of control and 205 % of control; (dose: 12.5 mg/kg/injection, schedule: Q04DX003 (ip), vehicle: other) 168 % of control; (dose: 25.0 mg/kg/injection, schedule: Q04DX003 (ip), vehicle: other) 93 % of control; (dose: 50.0 mg/kg/injection, schedule: Q04DX003 (ip), vehicle: other) 86 % of control.
In the case of `CCN(CC)C(=S)N1C(=O)C2C3CCC(O3)C2C1=O` (stereo unspecified), the T/C (dose: 15.0 mg/kg/injection, schedule: Q01DX005 (ip), vehicle: saline with Tween-80) was 101 % of control; the T/C (dose: 30.0 mg/kg/injection, schedule: Q01DX005 (ip), vehicle: saline with Tween-80) is 104 % of control; the T/C (dose: 60.0 mg/kg/injection, schedule: Q01DX005 (ip), vehicle: saline with Tween-80) is 110 % of control.
As for `CC1(C)CC2CCCCN2CO1` (stereo unspecified), the T/C runs as follows: (dose: 50.0 mg/kg/injection, schedule: Q01DX005 (ip), vehicle: saline) 112 % of control; (dose: 100.0 mg/kg/injection, schedule: Q01DX005 (ip), vehicle: saline) 108 % of control.
For the compound `COc1cc(CC2C(=O)OCC2Cc2cc(OC)c(O)c(C(CO)C(O)c3ccc(O)c(OC)c3)c2)ccc1O` (stereo unspecified), the T/C runs as follows: (dose: 5.0 mg/kg/injection, schedule: Q01DX009 (ip), vehicle: saline) 96 % of control; (dose: 10.0 mg/kg/injection, schedule: Q01DX009 (ip), vehicle: saline) 107 % of control; (dose: 20.0 mg/kg/injection, schedule: Q01DX009 (ip), vehicle: saline) 105 % of control; (dose: 40.0 mg/kg/injection, schedule: Q01DX009 (ip), vehicle: saline) 102 % of control.
In the case of `Cc1cc(C)[s+]s1`, the T/C (dose: 12.5 mg/kg/injection, schedule: Q01DX009 (ip), vehicle: water) is 109 % of control; the T/C (dose: 25.0 mg/kg/injection, schedule: Q01DX009 (ip), vehicle: water) was 109 % of control; the T/C (dose: 50.0 mg/kg/injection, schedule: Q01DX009 (ip), vehicle: water) was 115 % of control; the T/C (dose: 100.0 mg/kg/injection, schedule: Q01DX009 (ip), vehicle: water) is 117 % of control.
`Nc1nc(SN=Nc2ccc(S(N)(=O)=O)cc2)c2[nH]cnc2n1`: the T/C runs as follows: (dose: 7.5 mg/kg/injection, schedule: Q01DX009 (ip), vehicle: saline) 118 % of control; (dose: 15.0 mg/kg/injection, schedule: Q01DX009 (ip), vehicle: saline) 100 % of control.
Turning to `O=C(c1ccccc1)N1OC2C=CC1CC2` (stereo unspecified), the T/C runs as follows: under setting [1], 104 % of control; (dose: 100.0 mg/kg/injection, schedule: Q01DX009 (ip), vehicle: saline with Tween-80) 98 % of control; (dose: 200.0 mg/kg/injection, schedule: Q01DX009 (ip), vehicle: saline with Tween-80) 109 % of control.
As for `CCOCCC(N=NC(=S)NNC)c1ccccc1` (stereo unspecified), the T/C was 100 % of control (dose: 100.0 mg/kg/injection, schedule: Q01DX001 (ip), vehicle: saline); 94 % of control (dose: 200.0 mg/kg/injection, schedule: Q01DX001 (ip), vehicle: saline); 93 % of control (dose: 400.0 mg/kg/injection, schedule: Q01DX001 (ip), vehicle: saline).
With `C/C=C1/CN(C)C2Cc3c([nH]c4ccccc34)C(c3cc4[nH]c5c(c4cc3OC)CCN3CC4CC(CC)C3C5(COC(=O)c3ccc(OC)c(OC)c3)C4)CC1C2C(=O)OC` (stereo unspecified), the T/C by setting is: (dose: 6.25 mg/kg/injection, schedule: Q01DX001 (ip), vehicle: Klucel (hydroxypropylcellulose) (HPC)) 107 % of control; (dose: 12.5 mg/kg/injection, schedule: Q01DX001 (ip), vehicle: Klucel (hydroxypropylcellulose) (HPC)) 106 % of control; (dose: 25.0 mg/kg/injection, schedule: Q01DX001 (ip), vehicle: Klucel (hydroxypropylcellulose) (HPC)) 106 % of control and 113 % of control; (dose: 50.0 mg/kg/injection, schedule: Q01DX001 (ip), vehicle: Klucel (hydroxypropylcellulose) (HPC)) 104 % of control; (dose: 100.0 mg/kg/injection, schedule: Q01DX001 (ip), vehicle: Klucel (hydroxypropylcellulose) (HPC)) 100 % of control; (dose: 200.0 mg/kg/injection, schedule: Q01DX001 (ip), vehicle: Klucel (hydroxypropylcellulose) (HPC)) 100 % of control.
On to `CN(C)P(=O)(Oc1occc1C(C)(C)O)N(C)C`, for which the T/C is, setting by setting: (dose: 7.5 mg/kg/injection, schedule: Q01DX005 (ip), vehicle: saline) 100 % of control; under setting [2], 102 % of control.
Consider `Cc1ccoc1OP(=O)(N(C)C)N(C)C`, for which the T/C is 102 % of control under setting [2]; 100 % of control (dose: 30.0 mg/kg/injection, schedule: Q01DX005 (ip), vehicle: saline); 108 % of control (dose: 60.0 mg/kg/injection, schedule: Q01DX005 (ip), vehicle: saline).
`CC1(C)CC2(CC(C)(C)NC(=O)N2)NC(=O)N1`: the T/C is, setting by setting: (dose: 50.0 mg/kg/injection, schedule: Q01DX005 (ip), vehicle: Klucel (hydroxypropylcellulose) (HPC)) 105 % of control; (dose: 100.0 mg/kg/injection, schedule: Q01DX005 (ip), vehicle: Klucel (hydroxypropylcellulose) (HPC)) 92 % of control; (dose: 200.0 mg/kg/injection, schedule: Q01DX005 (ip), vehicle: Klucel (hydroxypropylcellulose) (HPC)) 100 % of control.
Turning to `CCCCCCC[n+]1cccc(S(=O)(=O)N2CCOCC2)c1`, the T/C runs as follows: (dose: 12.5 mg/kg/injection, schedule: Q01DX009 (ip), vehicle: saline with Tween-80) 98 % of control; (dose: 25.0 mg/kg/injection, schedule: Q01DX009 (ip), vehicle: saline with Tween-80) 98 % of control; under setting [1], 98 % of control.
Take `CCOC(=O)c1c(C)c2c(n1C)CCc1sc(N)nc1-2`: the T/C is 100 % of control (dose: 50.0 mg/kg/injection, schedule: Q04DX003 (ip), vehicle: Klucel (hydroxypropylcellulose) (HPC)); 101 % of control (dose: 100.0 mg/kg/injection, schedule: Q04DX003 (ip), vehicle: Klucel (hydroxypropylcellulose) (HPC)); 94 % of control (dose: 200.0 mg/kg/injection, schedule: Q04DX003 (ip), vehicle: Klucel (hydroxypropylcellulose) (HPC)).
As for `CC(C)CNC(=O)c1ccccc1C(=O)NC1(C(=O)NCC(C)C)CCCC1`, the T/C runs as follows: (dose: 50.0 mg/kg/injection, schedule: Q01DX005 (ip), vehicle: saline with Tween-80) 87 % of control; (dose: 100.0 mg/kg/injection, schedule: Q01DX005 (ip), vehicle: saline with Tween-80) 86 % of control; (dose: 200.0 mg/kg/injection, schedule: Q01DX005 (ip), vehicle: saline with Tween-80) 94 % of control.
Turning to `CN(C)C(=O)Nc1cccc(OC(=O)Nc2ccccc2)c1`, the T/C is 101 % of control under setting [3], 101 % of control under setting [4] and 90 % of control under setting [5].
For the compound `CC(=O)SCN1CCCCC1`, the T/C (dose: 12.5 mg/kg/injection, schedule: Q01DX009 (ip), vehicle: saline) is 108 % of control; the T/C (dose: 25.0 mg/kg/injection, schedule: Q01DX009 (ip), vehicle: saline) was 108 % of control and 112 % of control; the T/C (dose: 25.0 mg/kg/injection, schedule: Q04DX002 (ip), vehicle: saline) is 110 % of control; the T/C under setting [6] was 102 % of control and 118 % of control; the T/C (dose: 50.0 mg/kg/injection, schedule: Q04DX002 (ip), vehicle: saline) was 112 % of control; the T/C under setting [7] was 108 % of control. Also, under “dose: 100.0 mg/kg/injection, schedule: Q04DX002 (ip), vehicle: saline”, the T/C was 114 % of control and 116 % of control.
On to `COC(=O)C(N)Cc1ccc(O)c(O)c1` (stereo unspecified), for which the T/C reads like this: under setting [6], 101 % of control; (dose: 50.0 mg/kg/injection, schedule: Q08HX028 (ip), vehicle: water) 99 % of control; under setting [7], 108 % of control and 115 % of control; (dose: 100.0 mg/kg/injection, schedule: Q08HX028 (ip), vehicle: water) 102 % of control; (dose: 200.0 mg/kg/injection, schedule: Q01DX009 (ip), vehicle: saline) 111 % of control and 121 % of control; (dose: 200.0 mg/kg/injection, schedule: Q08HX028 (ip), vehicle: water) 120 % of control. For the same compound, the T/C (dose: 800.0 mg/kg/injection, schedule: Q01DX009 (ip), vehicle: saline) was 156 % of control.
Take `COc1ccc(/C=C/c2cc(OC)cc(=O)o2)cc1`: the T/C was 100 % of control (dose: 12.5 mg/kg/injection, schedule: Q04DX003 (ip), vehicle: saline with Tween-80); 99 % of control under setting [3]; 100 % of control under setting [4]; 100 % of control under setting [5].
